One data set deals with Met. Particulars: N and E of the pentapeptide changed to A, Matzke et al., Cancer Res. (2005), cited from earlier work.
In a further data set the test system is CD44v6. Description: HGF-induced activation of Met and ERK in L3.6pl cells (Western blot). It is filed as cell-based, human. Particulars: peptide before induction with 10 ng/ml HGF. As for the experimental part: Serum-starved cells (24 hours) were induced with the growth factor HGF (10 ng/mL) at 37° C. for 5 minutes. Where indicated, the cells were treated with peptides (100 ng/ml) prior to induction at 37° C. for 10 minutes (100 ng/mL CD44v6 peptide or control peptide). Following the induction with HGF, cells were washed with ice-cold phosphate-buffered saline (PBS). To detect activated Met and ERK, cells were lysed in sodium dodecyl sulfate (SDS)—sample buffer containing 100 mM dithiothreitol (DTT), boiled and subjected to western blot analysis using antibodies against phospho-Met and ERK. The loading controls were performed on the same blot after stripping (62.5 mM Tris, pH 6.8, 2% SDS, 0.8% DTT) by probing with the Met respectively Erk antibody. Blots were stained using the enhanced chemiluminescence system (Thermo Fisher Scientific, Schwerte, Germany). Bands in western blot analysis were quantified with the program Image J (National Institutes of Health).
To expand the studies to human pancreatic tumors, the highly metastatic human pancreatic carcinoma cells L3.6pl (Bruns, et al. Neoplasia (1999), 1(1):50-62) were investigated. These cells originate from the […] cells that have been passaged several times in the liver and the pancreas, a step that rendered them more and more metastatic. It was confirmed that Met is dependent on CD44v6 for its activation and signaling in these cells (FIG. 19A). The L3.6pl cells were treated with HGF in the presence or absence of a human v6 peptide of SEQ ID NO: 2 or SEQ ID NO:6 and Met activation and downstream signaling to ERK was measured. Phosphorylation of both Met and ERK was inhibited by the human v6 peptide. Treatment with a corresponding rat v6 peptide (ctrl peptide, SEQ ID NO: 10 or 11) had no influence on receptor activation and signal transduction (FIG. 19A).
The contribution of CD44v6 to Met signaling in the human epithelial pancreatic cancer cells L3.6pl (derived from Colo 357), the cervix carcinoma cells HeLa and the colon cancer cells HT29 were analysed using the CD44v6 peptide (v6 14mer; v6 5mer tested as well, data not shown).
For orientation: A western blot detects proteins with antibodies after separation by electrophoresis.

Another data set concerns L3.6pl cells. Nature of the data set: Human orthotopic pancreatic cancer model, L3.6pl cells in nude mice, treatment from day 7. Particulars: nude mice, orthotopic L3.6pl; 20 μg i.p. three times per week; listed as rat-specific peptide. It is filed as in vivo, mouse. The method, then: In the case of the human orthotopic model, L3.6pl pancreatic carcinoma cells (passage 24-26) were suspended in Hank's balanced salt solution (Invitrogen, Karlsruhe, Germany) after trypsinization. The cells were injected orthotopically in the pancreas of male nude mice as described (Bruns C J et al. (1999) Neoplasia 1(1):50-62). Two groups of 15 mice each were injected i.p. 7 days later with either the human v6 peptide respectively rat control peptide (20 μg). For all experiments described and depicted herein either the rat 14mer control peptide or the human 14mer peptide were used. All experiments were then repeated with the rat 5mer control peptide or the human 5mer peptide (N-R-W-H-E, SEQ ID NO: 2). […] The injection was repeated three times per week for 21 days. Two days after the last treatment the animals were killed.
7 μm thick paraffin sections were deparaffinized and rehydrated. For P-Met staining antigen unmasking was achieved by boiling the slides in 1 mM EDTA pH 8.0 followed by incubation for 15 minutes at a sub-boiling temperature, for CD31 staining the sections were treated with Proteinase K (8 μg/ml) for […] at 37° C. For immunofluorescence staining of P-Met, unspecific binding was blocked with 5% goat serum (DAKO, Glostrup, Denmark) (diluted in 1×PBS/0.3% Triton X-100) for 60 minutes. In the case of immunohistochemistry, endogenous peroxidases were at first blocked with 3% H2O2 in PBS followed by incubation with biotin blocking system (Dako, Glostrup, Denmark) and then unspecific binding was inhibited by incubation with 5% FCS in PBS was used for blocking. The sections were incubated with the P-Met antibody (D26, dilution 1:50 in 1×PBS/1% BSA/0.3% Triton X-100), Met antibody (C-28, dilution 1:50), GFP antibody (sc-101525, dilution 1:50) or CD31 antibody (5 μg/ml) over night or VFF18 (5 μg/ml) o/n at 4° C. After washing in PBS the sections were incubated with Alexa Fluor R 546 goat anti-rabbit (in case of immunofluorescence P-Met and Met staining, dilution 1:500) or a biotinylated secondary antibody (for immunohistochemical stainings rabbit anti-rat antibody for VFF18 and CD31, goat anti-rabbit for P-Met, cleaved Caspase-3 and cleaved Caspase-8 and rabbit anti-mouse for GFP, dilution 1:500) for 45 minutes. For DAB staining the sections were treated with a streptavidin-peroxidase conjugate (Dako, Glostrup, Denmark) and developed with DAB (3,3′-diaminobenzidine) substrate system (3,3′-diaminobenzidine; Biozol, Eching, Germany) For immunofluorescence DAPI was used for nuclear staining.
To test the effect of the peptide on tumor growth and metastasis formation the L3.6pl cells were orthotopically injected into the pancreas of immunosuppressed mice (NCI-nu). […] The primary tumor expresses a high amount of CD44v6 (FIG. 19B). […] Indeed, human HGF in a concentration of 3375 pg/ml was detected in the supernatant (see Material and Methods) after 5 days of culture (data not shown).

In a further data set the test system is BSp73ASs6 cells. Nature of the data set: Rat syngeneic model, subcutaneous BSp73ASs6 tumors, treatment from one week (metastasis formation). Particulars: rats, s.c. BSp73ASs6. It is filed as in vivo. As for the experimental part:
In the case of the rat syngeneic model, 1×10^6 pancreatic cells (BSp73AS and its transfectants) were subcutaneously injected into the right posterior flank of the animals. Tumors developed for four weeks. During this time period animals injected with BSp73ASs6 cells expressing Met-shRNA or control-shRNA received doxycycline in the drinking water. At the end of the experiment, primary tumors were isolated. Lungs and axillary lymph nodes were analyzed. The tissues were incubated for 24 h in a zinc-fixative (0.5 g calcium acetate, 5.0 g zinc acetate, 5.0 g zinc chloride, in 1 L 0.1 M Tris pH 7.4) and embedded in paraffin for further analysis. In case of peptide or antibody treatment tumors developed for one week before the first treatment. Where indicated, animals received 200 μg of peptide or antibody per injection three times per week for four weeks. Tumor growth was monitored weekly using a caliper Animals were killed at day 28 or 30 after start of the treatment.
For histomorphological analysis paraffin-embedded sections of lungs were stained with hematoxylin and eosin and periodic acid-Schiff (H&E or PAS). Serial sections of the whole tissue blocks were examined by analyzing slices every 20 μm; in each slice, the presence and the extension of the metastatic deposit was assessed, according to the procedure routinely used by pathologists to evaluate the presence of micrometastases.
Rat peptides had the sequences KEKWFENEWQGKNP (SEQ ID NO: 10) and NEWQG (SEQ ID NO: 11). BSp73ASs6 cells were subcutaneously injected into syngeneic rats and rat CD44v6 peptides of SEQ ID NO: 10 or SEQ ID NO: 11 (or mouse control peptides) or the CD44v6 antibody (or IgGs as a control) were injected intra-tumoral or intravenously three times a week. […] This is compatible with the fact that also BSp73AS cells or BSp73ASv1-10Δv6 cells can induce the formation of primary tumors similarly to the v6 transfectants.

The test system of another data set is BSp73ASs6 tumors. Particulars: rat.
For the next data set, the system named is murine 4T1 cells. Nature of the data set: Syngeneic orthotopic 4T1 mammary carcinoma model in BALB/c mice. It counts as in vivo, mouse. As for the experimental part: FIG. 27: Treatment with the v6 14mer reduces growth of the primary tumor and macroscopic metastases formation in the lung. 1×10^6 murine 4T1 cells per mouse were diluted in 50 μl RPMI plus 50 μl Matrigel and injected into the […] mammary fat pad of 10 female BALB/c mice. One week after the injection, the mice were either injected intraperitoneally with 20 μg of the murine v6 14mer dissolved in 100 μl PBS or with 20 μg of control peptide (rat v6 14mer) dissolved in 100 μl PBS. The injection was performed 3 times per week for two weeks. After 2 weeks the mice were sacrificed and the primary tumors and the lungs were extracted. A: Overall reduction of the tumor volume in the v6 peptide treated group B: Immunofluorescent staining for the endothelial marker CD34 to monitor vascularization of the primary tumor. Graphic representation of the reduction of the total vessel area. C: The v6 peptides led to a reduction in macroscopic lung metastasis. The black arrows mark examples for metastases. The scale bar corresponds to a size of 1 cm. Statistical evaluation of the average number of lung metastases. Significance was calculated using Student's t test: p*<0.01; **p<0.005. Each group consisted of 5 animals.
All animals were handled according to German regulations for animal experimentation. The animal experiments were approved by the Regierungspräsidium Karlsruhe (35-9185.81/G-83/04). All mice were obtained from Harlan. 1×10^6 murine 4T1 cells (diluted in either […] of control peptide or […] of CD44v6 peptide (peptides of SEQ ID No.: 6 were tested) in PBS) were orthotopically injected into the mammary fat pad of female BALB/c mice. In succession, 5 of the mice were injected intraperitoneally with a CD44v6-peptide (20 μg per mouse) (peptides of SEQ ID No.: 6 were tested) and 5 of the mice were injected with an unspecific control peptide (20 μg per mouse) three times a week. After four weeks, the mice were sacrificed and the tumors as well as the lung and lymph nodes of the animals were extracted. These organs were then fixed in 4% Formalin, processed and embedded in paraffin. […]

Entries after “also recorded” stand apart in the source; their conditions may differ. Read-outs that look alike come from different tables or passages of the source. No end group written: not given here.

As for A-R-W-H-A (ARWHA) [SEQ ID NO: 3], the “CD44v6 mediated activation of Met” value was “still active in inhibiting CD44v6 mediated activation of Met” in the data set on Met and “capable of abrogating Met activation” in the data set on Met (listed as SEQ ID NO:3).

For “KEKWFENEWQGKNP [SEQ ID NO: 10, rat CD44v6 14mer; control peptide in human models]”, in the data set with CD44v6, the “HGF-induced phosphorylation/activation of ERK” value is recorded as “no influence” and the “HGF-induced phosphorylation/activation of Met” value was “no influence”. Also, in the data set on L3.6pl cells, the “Metastasis formation (liver)” value was “neither influence on metastasis formation; also recorded: no influence on metastasis formation” and the “Outgrowth of the primary tumor in the pancreas” value is “no influence on metastasis formation or on growth of the primary tumor”. Moreover, in the data set with BSp73ASs6 cells (200 μg per injection i.t. or i.v., three times a week, four weeks, start after one week), the “Metastasis (axillary lymph nodes and lungs)” value is reported as “completely inhibited metastasis”. The “Metastasis and micro-metastasis in lung sections (PAS and H&E histology)” value in the data set on BSp73ASs6 cells (200 μg three times a week) is listed as “no metastasis nor micro-metastasis could be detected”. The “Outgrowth of primary tumors” value with BSp73ASs6 cells (treatment for 28 days) is “not influenced”.

Take “WFQNGWQGKNP (also: DY681 fluorescent dye label) [mv6 pep Dy681, reference compound]”: the “Ex vivo fluorescence in excised tumors and lungs” value in the data set with BSp73ASs6 tumors is “not in tumors and lungs”.

As for “v6 14mer: murine v6 14mer per FIG. 27 legend; no sequence printed; b173 and b212 say SEQ ID NO: 6 (KEQWFGNRWHEGYR)”, the “Total number of blood vessels in the primary tumor (anti-CD34 staining)” value in the data set with murine 4T1 cells (BALB/c mice, 4T1, 20 μg i.p. 3 times per week for two weeks) is recorded as “significantly reduced”. In the data set on murine 4T1 cells (BALB/c mice, 4T1 in mammary fat pad, 20 μg i.p. 3 times per week for two weeks, 5 animals per group), the “Size of the primary tumor” value was “significant decrease of tumor size”. Also, the “Macroscopic lung metastases per animal” value in the data set with murine 4T1 cells (macroscopic analysis of the lungs, 5 animals per group) is reported as “three animals showed no macroscopic metastases at all, whereas two animals had only one metastase”.

These data come from patent publication US9586994B2, “CD44V6-derived peptides for treating breast cancer” (KARLSRUHER INSTITUT FÜR TECHNOLOGIE, priority 2012, dated 2017).
